Values of other authors, collected in patent US20090170823A1, “Dosage Regimens and Pharmaceutical Compositions and Packages for Emergency Contraception” (Duramed Pharmaceuticals, Inc., priority 2007, published 2009).

Conditions: relative to 30 μg ethinyl estradiol; see EP 0 253 607

| Structure (SMILES) | amount roughly equivalent to 30 μg of ethinyl estradiol |
| --- | --- |
| C[C@]12CC[C@@H]3c4ccc(O)cc4CC[C@H]3[C@@H]1CC[C@@H]2O [17β-estradiol] | ~2,000 μg |
| C#C[C@]1(O)CC[C@H]2[C@@H]3CCc4cc(OC)ccc4[C@H]3CC[C@@]21C [mestranol] | ~60 µg |
